Experiments:
in vivo = conditions: mouse, ip
Text: When suspended in carboxymethylcellulose (1.5%) and injected i.p. into mice according to the method of Miller and Tainter, Proc. Soc.

[1] = test system: plasma glucose level of non-fasted rats; assay: plasma glucose level of non-fasted rats after I.P. injection (Table 1); assay type: in vivo, rats (male albino); conditions: 40 mg/kg I.P.
Description: (§1) Male albino rats weighing from 100-150 gm were divided into groups each comprised from 7-8 rats. […] Non-fasted and fasted rats were either non-alloxanized or injected I.V. with alloxan at a dose of 40 mg/kg two days before administration of saudin. Saudin was injected I.P. in the experiment groups in a suspension form containing 0.5% carboxymethylcellulose (CMC). Control groups received I.P. injection of 0.5% CMD at a dose not exceeding 1 ml/100 gm (Maximum volume used to suspend saudin). Blood samples were taken and the plasma glucose level was estimated as indicated in the results. The method used for glucose estimation was similar to that used by Free et al., Advances in Clinical Chemistry, E. H. Sobotaka and C. P. Steward (eds.), Academic Press, New York, 6, p. 67 (1973).
non-fasted rats in response to I.P. injection of
40 mg/kg. Blood samples were taken at 1 h intervals
in heparinized tubes and plasma was separated for […]

[2] = test system: plasma glucose level of alloxanized and non-alloxanized rats; assay: plasma glucose level of alloxanized and non-alloxanized rats, fasted or non-fasted (Table 2); assay type: in vivo, rats (male albino)
Description: as §1
Effect of saudin on the plasma glucose level of alloxanized and
non-alloxanized rats either fasted
or non-fasted. Blood samples were taken 2 hours after saudin injection in
tubes containing heparin.
Plasma was separated for glucose estimation.

[3] = test system: blood sugar level of fasting mice (alloxanized); assay: blood sugar level of fasting alloxanized mice (Table 3); assay type: in vivo; conditions: for Blood Sugar Level, mean S.E., 1 h: control 327 ± 46; for Blood Sugar Level, mean S.E., 2 h: control 360 ± 50; for Blood Sugar Level, mean S.E., 3 h: control 355 ± 48.5; for Blood Sugar Level, mean S.E., 4 h: control 378 ± 51.5; for Blood Sugar Level, mean S.E., 5 h: control 377 ± 57.5
Description: It is possible, therefore, that saudin operates by a different mechanism than the hypoglycemic agents heretofore employed, and may for that reason find unique application in medicine. The results of comparative tests are given in the following Table 3, using mice injected intravenously with 50 mg/kg of alloxan 3 days before the tests.

animals = assay: hypoglycemic effect in animals on injection (general statement); assay type: in vivo; conditions: read-out: dose producing a significant hypoglycemic effect, by injection, "above about"
Description: For the control of hyperglycemia, a dose between about 25 and about 110 mg/kg is effective, when administered at intervals of about 2 to about 12 hours in a tissue-compatible liquid. Normal saline solution is a suitable solvent diluent, or alternatively aqueous carboxymethylcellulose.

[4] = fasting mice, 50 mg/kg alloxan i.v. 3 days before, saudin 40 mg/kg, tolbutamide 150 mg/kg

| Compound | LD50 (in vivo) | hypoglycemic effect (in words) ([1]; non-alloxanized fed rats, two hours after injection) | Plasma glucose level, S.E., 0 h ([1]; non-fasted, non-alloxanized rats, 0 h, control 113.63 ± 7.50, saudin S.E. 3.05) | Plasma glucose level, S.E., 1 h ([1]; non-fasted, non-alloxanized rats, 1 h, control 115.25 ± 5.78, saudin S.E. 4.45) | Plasma glucose level, S.E., 2 h ([1]; non-fasted, non-alloxanized rats, 2 h, control 126.75 ± 4.62, saudin S.E. 2.31*, significant vs control at P < 0.01) | Plasma glucose level, S.E., 3 h ([1]; non-fasted, non-alloxanized rats, 3 h, control 105.00 ± 3.23, saudin S.E. 3.78) | Plasma glucose level, S.E., 4 h ([1]; non-fasted, non-alloxanized rats, 4 h, control 104.73 ± 4.11, saudin S.E. 4.81) | Plasma glucose level, S.E., alloxanized fasted, Exp. ([2]; alloxanized (40 mg/kg alloxan I.V. 2 days before) fasted rats, 2 hours after saudin injection, control 116.66 ± 6.64, saudin S.E. 4.45) | Plasma glucose level, S.E., alloxanized non-fasted, Exp. ([2]; alloxanized (40 mg/kg alloxan I.V. 2 days before) non-fasted rats, 2 hours after saudin injection, control 141.2 ± 3.43, saudin S.E. 10.78) | effect on plasma glucose levels (in words) ([2]; fasted alloxanized and non-alloxanized rats, fed alloxanized rats) | Plasma glucose level, S.E., non-alloxanized fasted, Exp. ([2]; non-alloxanized fasted rats, 2 hours after saudin injection, control 81.14 ± 4.31, saudin S.E. 3.05) | Plasma glucose level, S.E., non-alloxanized non-fasted, Exp. ([2]; non-alloxanized non-fasted rats, 2 hours after saudin injection, control 132.14 ± 3.82, saudin S.E. 2.22*, significant vs control at P < 0.01) | hypoglycemic effect in alloxanized mice (in words) ([3]; alloxanized mice, unlike tolbutamide) | Blood Sugar Level, mean S.E., 0 h ([3]; fasting mice, 50 mg/kg alloxan i.v. 3 days before, saudin 40 mg/kg, tolbutamide 150 mg/kg, 0 h, control 230 ± 40) | Blood Sugar Level, mean S.E., 1 h [3, 4] | Blood Sugar Level, mean S.E., 2 h [3, 4] | Blood Sugar Level, mean S.E., 3 h [3, 4] | Blood Sugar Level, mean S.E., 4 h [3, 4] | Blood Sugar Level, mean S.E., 5 h [3, 4] | minimal effective dose (animals) |
| --- | --- | --- | --- | --- | --- | --- | --- | --- | --- | --- | --- | --- | --- | --- | --- | --- | --- | --- | --- | --- |
| C[C@H]1C(=O)O[C@]23CC[C@]4(C)C(=O)OC[C@@]45O[C@](c4ccoc4)(C[C@@H]1[C@@]25C)O3 [saudin, (-)-(1R,4R,5S,7R,9S,13S,16R) -7-(3-furanyl)-4,13,16-trimethyl-2,8,11,17-tetraoxapentacyclo [7.6.1.1^1,7.0^5,16.0^9,13]heptadeca-3,12-dione] | 500 ± 15.8 mg/kg | significant hypoglycemic effect | 109.75 mg/dL | 127.86 mg/dL | 107.00 mg/dL | 97.00 mg/dL | 98.00 mg/dL | 103.5 mg/dL | 142.8 mg/dL | did not alter the plasma glucose levels | 79.86 mg/dL | 111.85 mg/dL | does not produce a hypoglycemic effect | 222 ± 25 mg % | 288 ± 48.5 mg % | 346 ± 55.4 mg % | 342 ± 55.4 mg % | 355 ± 54.3 mg % | 443 ± 62.7 mg % | > 10 mg/kg |
| CCCCNC(=O)NS(=O)(=O)c1ccc(C)cc1 [tolbutamide, reference compound] |  |  |  |  |  |  |  |  |  |  |  |  |  |  | 185 ± 36 mg % | 212 ± 40.4 mg % | 235 ± 40.8 mg % | 262 ± 54 mg % | 347 ± 64 mg % |  |

— patent publication US4740521A, “Saudin, a novel hypoglycemic agent” (Purdue Research Foundation, priority 1986, dated 1988)
